From US8168639B2, “Heterotricyclic compounds as serotonergic and/or dopaminergic agents and uses thereof” (ATIR Holding S.A., priority 2006, dated 2012)

Columns and labels:
[1] = molecular target: T1, Human recombinant serotonin 5-HT1A receptors expressed in CHO cells (Homo sapiens, UniProt P08908); experiment: [35S]GTPγS 5-HT1A activity assay; type: biochemical; details: 10 μM compound; [35S]GTPγS binding increase relative to serotonin
T1 construct: expressed in transfected cells; host or cells: CHO cells
T1 sequence (P08908 1-422): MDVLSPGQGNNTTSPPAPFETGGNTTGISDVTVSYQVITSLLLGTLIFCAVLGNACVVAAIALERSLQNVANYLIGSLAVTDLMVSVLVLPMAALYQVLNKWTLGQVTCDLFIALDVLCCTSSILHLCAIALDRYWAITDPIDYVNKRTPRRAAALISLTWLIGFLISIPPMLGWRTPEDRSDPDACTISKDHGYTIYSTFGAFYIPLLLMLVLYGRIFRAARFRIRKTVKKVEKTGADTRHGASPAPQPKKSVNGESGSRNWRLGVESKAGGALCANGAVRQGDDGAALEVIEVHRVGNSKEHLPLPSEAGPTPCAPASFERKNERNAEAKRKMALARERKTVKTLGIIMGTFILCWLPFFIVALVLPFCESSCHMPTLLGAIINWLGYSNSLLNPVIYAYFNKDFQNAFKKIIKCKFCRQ
Method: Human recombinant serotonin 5-HT1A receptors expressed in CHO cells were used. The tested compound were incubated with cell membranes and [^35S]GTPγS for 30 minutes in modified HEPES buffer (pH=7.4). Test compound-induced increase of [^35S]GTPγS binding was quantified relative to serotonin-induced increase of [^35S]GTPγS. Compounds were tested at concentrations of 10, 1 and 0.1 μM.

[2] = molecular target: T2, 5-HT1A type serotonin receptor (human recombinant, HEK-293 cells) (Homo sapiens, UniProt P08908); experiment: Competitive binding to 5-HT1A receptor, [3H]-8-OH-DPAT radioligand; details: [3H]-8-OH-DPAT 0.5 nM; for 5HT1A receptor Binding % at 1 nM: 1 nM compound; for 5HT1A receptor Binding % at 10 nM: 10 nM compound; for 5HT1A receptor Binding % at 100 nM: 100 nM compound; for 5HT1A receptor Binding % at 1 μM: 1 μM compound; for 5HT1A receptor Binding % at 5 μM: 5 μM compound
T2 construct: expressed in transfected cells; host or cells: HEK-293 cells
T2 sequence (P08908 1-422): T1 sequence (P08908 1-422)
Method: Compounds were assayed for competitive binding to the 5-HT1A type serotonin receptor. The receptor is expressed as human recombinant proteins in HEK-293 cells, as described, for example, in Hoyer et al. (1985) and Schoeffter and Hoyer (1989).
Determination of binding to 5-HT1A receptor was performed using [^3H]-8-OH-DPAT, a 5-HT1A receptor ligand (Hoyer et al., 1985), as a radioligand (221 Ci/mmol, 0.5 nM) in the presence of various concentrations of the tested compound. Reactions were carried out in 50 mM Tris-HCl (pH 7.4) containing 10 mM MgSO4, 0.5 mM EDTA, and 0.1% ascorbic acid for 60 minutes at 25° C. The reaction was terminated by rapid vacuum filtration onto glass fiber filters. Radioactivity trapped onto the filters was determined (counted) and compared to control values in order to accurately evaluate any interaction of the test compound(s) with the cloned 5-HT1A receptor binding site.

[3] = molecular target: T3, D4.4 type dopamine receptor (human recombinant, CHO cells) (Homo sapiens, UniProt P21917); experiment: Competitive binding to D4.4 dopamine receptor, [3H]-YM-09151-2 radioligand; details: [3H]-YM-09151-2 0.3 nM; for D4.4(h) receptor Competitive Binding, % at 100 nM: 100 nM compound; for D4.4(h) receptor Competitive Binding, % at 1 μM: 1 μM compound
T3 construct: expressed in transfected cells; host or cells: CHO cells
T3 sequence (P21917 1-419): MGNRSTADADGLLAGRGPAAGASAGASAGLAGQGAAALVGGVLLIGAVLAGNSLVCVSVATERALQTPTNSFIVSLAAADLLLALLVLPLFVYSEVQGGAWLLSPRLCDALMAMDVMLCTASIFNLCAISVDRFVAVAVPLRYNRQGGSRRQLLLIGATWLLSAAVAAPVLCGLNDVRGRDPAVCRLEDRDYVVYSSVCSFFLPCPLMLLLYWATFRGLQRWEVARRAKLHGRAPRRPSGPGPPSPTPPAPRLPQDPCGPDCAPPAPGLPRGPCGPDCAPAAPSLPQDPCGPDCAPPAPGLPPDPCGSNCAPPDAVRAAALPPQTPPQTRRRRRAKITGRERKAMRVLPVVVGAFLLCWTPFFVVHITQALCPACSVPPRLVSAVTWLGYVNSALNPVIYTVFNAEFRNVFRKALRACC
Method: Compounds were assayed for competitive binding to the D4.4 type dopamine receptors, which is expressed as human recombinant proteins in CHO cells, as described, for example, in Jarvis et al. (1973); Van Tol et al. (1991) and Van Tol et al. (1992).
Determination of binding to D4.4 receptor was performed using [^3H]-YM-09151-2 (70-87 Ci/mmol, 0.3 nM), as a radioligand, in with the presence of various concentrations of the tested compound. Reactions were carried out in 50 mM TRIS-HCl (pH 7.4) containing 5 mM MgCl2, 5 mM EDTA, 5 mM KCl and 1.5 mM CaCl2, for 60 minutes at 22° C. The reaction was terminated by rapid vacuum filtration onto glass fiber filters. Radioactivity trapped onto the filters was determined (counted) and compared to control values in order to accurately evaluate any interaction of the tested compound(s) with the cloned dopamine D4.4 binding site.

[4] = system: Sprague Dawley rats; experiment: Penile erection test in rats; type: in vivo, rat; details: 0.3 µmol/kg, subcutaneous; for Percent of animals showing erection response: moderate to strong erection
Method: Penile erection was tested in Sprague Dawley rats. The experimental group included 50 adult male rats, with body weights in the range of 312-330 grams. The animals were housed for acclimatization in a cage, and water and food were supplied ad libitum.
Penile erection experiments were carried out in morning hours between 9 AM and 11 AM, in a dark room with a red light source. Control groups included 10 animals that received saline as a placebo, and 10 animals that received 0.3 μmol/kg body weight of apomorphine hydrochloride in 1 ml of saline, as a positive control. […]
Penile erection was tested in Sprague Dawley rats, according to the protocol described hereinabove.

[5] = system: Male ferrets (Mustela putorius furo); experiment: Ferret emesis model; type: in vivo, ferret (Mustela putorius furo); details: 0.3 μmol/kg subcutaneous, observed 90 minutes
Method: Male ferrets (Mustela putorius furo) were made to fast overnight before experiments. 18 animals (weighing 0.8-1.0 kg) were divided into the following three groups of six:
(1) test group—received the compound being tested, e dissolved in 1 ml saline at a dose of 0.3 μmol/kg body weight, administered subcutaneously;
(2) negative control—received saline; and
(3) positive control—received apomorphine.
Animals were placed individually in observation cages and received cat food 30 minutes before the experiment.
One ml of saline was administered subcutaneously. Apomorphine and the test compound were dissolved in 1 ml saline at a dose of 0.3 μmol/kg body weight. Induced emesis or nausea was determined by direct observation during 90 minutes following drug injection. Nausea was characterized by behavior such as licking, gagging, backing, head burying and intense abdominal grooming. Emesis was characterized by rhythmic abdominal contractions.

Structure (SMILES) | % activation of 5HT1A at 10 μM [1] | 5HT1A receptor Binding % at 1 nM [2] | 5HT1A receptor Binding % at 10 nM [2] | 5HT1A receptor Binding % at 100 nM [2] | 5HT1A receptor Binding % at 1 μM [2] | 5HT1A receptor Binding % at 5 μM [2] | D4.4(h) receptor Competitive Binding, % at 100 nM [3] | D4.4(h) receptor Competitive Binding, % at 1 μM [3] | Number of animals showing moderate to strong erection [4] | Time during which erection was shown [4] | Percent of animals showing erection response [4] | Number of ferrets showing signs of nausea and/or emesis [5]
Oc1cccc(N2CCN(Cc3cc4c(cn3)[nH]c3ccccc34)CC2)c1 [Compound B-96] | active | active | active | active | active | active | 87.6% | 102.45% |  |  |  | 
CCOc1ccccc1N1CCN(Cc2cc3c(cn2)[nH]c2ccccc23)CC1 [Compound B-97] | 48% | 1.78% | 37.48% | 75.08% | 99.45% | 100.34% | 74.27% | 100.99% |  |  |  | 
COc1ccccc1N1CCN(Cc2cc3c(cn2)[nH]c2ccccc23)CC1 [Compound B-99] | active | active | active | active | active | active | 97.43% | 102.4% | 26 of the 30 animals | 45 to 70 min | 87% | none
CN1CCc2cccc3c2[C@H]1Cc1ccc(O)c(O)c1-3 [apomorphine, reference compound] |  |  |  |  |  |  |  |  |  | 15 to 25 min | 70% | 4 of the 6 ferrets

Now from value to molecule, other results behind:

% activation of 5HT1A at 10 μM [1] | 5HT1A receptor Binding % at 1 nM [2] | 5HT1A receptor Binding % at 10 nM [2] | 5HT1A receptor Binding % at 100 nM [2] | 5HT1A receptor Binding % at 1 μM [2] | 5HT1A receptor Binding % at 5 μM [2] | D4.4(h) receptor Competitive Binding, % at 100 nM [3] | D4.4(h) receptor Competitive Binding, % at 1 μM [3] | Structure (SMILES) | Number of animals showing moderate to strong erection [4] | Time during which erection was shown [4] | Percent of animals showing erection response [4] | Number of ferrets showing signs of nausea and/or emesis [5]
active | active | active | active | active | active | 16.69% | 81.97% | O=c1[nH]c(CN2CCC(c3ccccc3)CC2)nc2sc3c(c12)CCCC3 [Compound B-93] |  |  |  | 
50% | 0.9% | 20.23% | 44.56% | 62.77% | 97.67% | 19.14% | 89.02% | CCOc1ccccc1N1CCN(Cc2nc3sc4c(c3c(=O)[nH]2)CCCC4)CC1 [Compound B-94] |  |  |  | 
active | active | active | active | active | active | 32.26% | 86.68% | O=c1[nH]c(CN2CCN(c3cccc(O)c3)CC2)nc2sc3c(c12)CCCC3 [Compound B-95] |  |  |  | 
